Assay results: US20250129184A1, “TARGETED ANTICOAGULANT” (Northwestern University, priority 2016, published 2025)
Where no end group is shown, it is not given here.

Assays:
[1] = system: fibrin; experiment: peptide binding to protein-coated polystyrene surfaces (fibrin); conditions: biotinylated peptide vs scrambled CERAK; protein 10 μg/cm^2; overnight; fluorophore-conjugated streptavidin
Description: (§1) During the development of embodiments of the technology provided herein, experiments were conducted to assess the binding specificity of the CREKA peptides towards fibrin and non-target components. […] Proteins were applied to uncoated polystyrene surfaces at 10 μg/cm^2 and washed with PBS three times to remove unbound protein. A range of concentrations of biotinylated CREKA and biotinylated CERAK were incubated with the treated surfaces overnight, then washed three times the next day to remove the unbound peptides. The peptides remaining on the protein-coated surfaces were quantified using fluorophore-conjugated streptavidin. […] These properties of the heparin-CREKA compounds indicate that heparin-CREKA is appropriate for administration by intravenous injection.

[2] = target: T1, fibrinogen (Homo sapiens, UniProt P02671+P02675+P02679); experiment: peptide binding to protein-coated polystyrene surfaces (fibrinogen); conditions: biotinylated peptide; common blood plasma protein
T1 sequence (P02671 20-629 limits assumed): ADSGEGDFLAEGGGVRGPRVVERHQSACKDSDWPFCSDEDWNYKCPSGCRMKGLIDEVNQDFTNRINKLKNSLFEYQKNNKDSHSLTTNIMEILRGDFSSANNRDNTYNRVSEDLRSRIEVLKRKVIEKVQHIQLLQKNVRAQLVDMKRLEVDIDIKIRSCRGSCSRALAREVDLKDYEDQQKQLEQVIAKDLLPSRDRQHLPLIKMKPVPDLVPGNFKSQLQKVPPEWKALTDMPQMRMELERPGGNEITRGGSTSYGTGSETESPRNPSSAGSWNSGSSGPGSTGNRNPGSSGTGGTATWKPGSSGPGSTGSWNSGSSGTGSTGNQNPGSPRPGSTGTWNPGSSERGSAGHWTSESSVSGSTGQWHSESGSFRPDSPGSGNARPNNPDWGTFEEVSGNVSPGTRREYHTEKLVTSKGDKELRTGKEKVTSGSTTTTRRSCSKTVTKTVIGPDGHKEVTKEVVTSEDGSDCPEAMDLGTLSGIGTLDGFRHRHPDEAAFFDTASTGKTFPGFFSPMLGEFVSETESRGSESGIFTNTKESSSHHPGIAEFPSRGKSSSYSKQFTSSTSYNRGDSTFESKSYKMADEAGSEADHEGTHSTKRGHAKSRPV
T1 sequence (P02675 31-491): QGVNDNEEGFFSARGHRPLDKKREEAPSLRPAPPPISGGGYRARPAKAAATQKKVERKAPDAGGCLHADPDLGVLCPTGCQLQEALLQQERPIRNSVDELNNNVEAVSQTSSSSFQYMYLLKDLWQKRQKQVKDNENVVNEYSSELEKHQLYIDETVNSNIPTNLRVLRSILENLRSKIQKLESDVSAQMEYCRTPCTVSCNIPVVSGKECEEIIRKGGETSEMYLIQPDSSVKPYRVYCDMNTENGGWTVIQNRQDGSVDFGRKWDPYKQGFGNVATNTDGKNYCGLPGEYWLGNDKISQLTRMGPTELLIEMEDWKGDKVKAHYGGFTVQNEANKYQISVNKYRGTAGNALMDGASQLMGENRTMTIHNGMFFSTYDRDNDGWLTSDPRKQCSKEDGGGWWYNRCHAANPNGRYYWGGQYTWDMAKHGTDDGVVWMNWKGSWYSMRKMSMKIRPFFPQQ
T1 sequence (P02679 27-433 limits assumed): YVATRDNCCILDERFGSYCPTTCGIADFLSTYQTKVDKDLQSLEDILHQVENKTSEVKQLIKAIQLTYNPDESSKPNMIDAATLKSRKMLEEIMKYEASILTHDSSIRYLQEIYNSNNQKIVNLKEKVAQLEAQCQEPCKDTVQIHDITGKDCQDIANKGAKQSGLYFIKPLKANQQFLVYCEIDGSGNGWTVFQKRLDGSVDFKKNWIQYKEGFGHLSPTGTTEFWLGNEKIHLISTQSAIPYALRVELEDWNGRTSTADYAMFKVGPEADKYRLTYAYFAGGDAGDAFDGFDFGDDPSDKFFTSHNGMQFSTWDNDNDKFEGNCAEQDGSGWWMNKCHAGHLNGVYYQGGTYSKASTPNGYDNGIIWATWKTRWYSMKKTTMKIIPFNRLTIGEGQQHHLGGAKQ
Description: as §1

[3] = target: albumin (Homo sapiens, UniProt P02768); experiment: peptide binding to protein-coated polystyrene surfaces (albumin); conditions: biotinylated peptide; common blood plasma protein
Description: as §1

[4] = system: ePTFE graft in abdominal aorta; experiment: rat abdominal aorta interposition model with ePTFE graft; assay type: in vivo, Sprague Dawley rats; conditions: two intravenous doses, 24 hours; middle_3 and distal segments
Description: During the development of embodiments of the technology provided herein, experiments were conducted to evaluate the in vivo performance of the heparin-CREKA relative to conventional clinically used heparin. In particular, heparin-CREKA was studied in a rat abdominal aorta interposition model. Briefly, male Sprague Dawley rats (200-500 g) were anesthetized by a ketamine/xylazine cocktail. The abdomen of the anesthetized rat was entered through a midline incision. The abdominal aorta was exposed (FIG. 7, Panel A), clamped in both proximal and distal regions using micro-vessel clips, and then excised between the clamps (FIG. 7, Panel B). A segment (e.g., approximately 1 cm in length; 1.524±0.05 mm in diameter) of expanded polytetrafluoroethylene (ePTFE) was used as a graft. The graft was connected to the abdominal aorta using an end-to-end anastomosis technique with interrupted stitches at each end (FIG. 7, Panel C). Following reperfusion of blood flow through the graft, one dose of anti-coagulant (heparin or heparin-CREKA) was given systemically via intravenous injection. The incision was then closed in layers. 24 hours after the initial implantation surgeries and immediately prior to sacrifice of the test […], a second dose of […] (heparin or heparin-CREKA) was administered systemically via intravenous injection. […]

[5] = system: Pig whole blood; experiment: whole blood clotting assay on fibrin coated plates; assay type: cell-based; conditions: fibrin coated 96-well plates pre-treated 30 minutes, washed three times with PBS; re-calcified blood; absorbance 405 nm
Description: During the development of embodiments of the technology provided herein, experiments were conducted to test the anti-coagulant activity of embodiments of the heparin-CREKA compounds described herein. In particular, the heparin-CREKA compounds were evaluated by a whole blood clotting assay and a platelet adhesion assay (FIGS. 4 and 5). Pig whole blood was collected into acid citrate dextrose (ACD) anticoagulant. Fibrin coated 96-well plates were pre-treated with phosphate-buffered saline (PBS), heparin, or heparin-CREKA for 30 minutes at room temperature, then followed with three washes with PBS prior to the test. The wash removes unbound heparin or heparin-CREKA from the surfaces. Control experiments included tests of tissue culture treated and untreated polystyrene 96 well plates. […] The coagulation process was monitored at each selected time point by adding 150 μl of deionized water into each well to lyse the unclotted red blood cells. The lysate was then transferred into a new plate and the absorbance was measured at a wavelength of 405 nm. Higher absorbance represents more unclotted red blood cells and better anti-coagulation effect. The anti-coagulant effect of heparin-CREKA was detected up to 60 minutes while the effect of the conventional heparin was undetectable 20 minutes after contacting the blood (FIG. 4).

[6] = system: platelets; experiment: platelet adhesion assay using platelet-rich plasma on fibrin surfaces; assay type: cell-based; conditions: compared to bare fibrin surface; at a lower concentration than heparin; PRP 1:10, 37° C., 60 minutes; LDH readout
Description: Next, during the development of embodiments of the technology provided herein, experiments were conducted to test the anticoagulation activity of embodiments of the heparin-CREKA compounds described herein. In particular, a platelet adhesion assay was performed using platelet-rich plasma (PRP). Surfaces were treated with various concentrations of heparin or heparin-CREKA as described above. PRP, diluted 1:10 in PBS, was incubated at 37° C. for 60 minutes with the samples and gently rinsed with warm PBS. The number of adherent platelets was determined by detecting the amount of lactate dehydrogenase (LDH) present after cell lysis. Briefly, adherent platelets were lysed by incubation with 2% Triton-PSB buffer for 30 minutes at 37° C. A colorimetric substrate for LDH was added and incubated for 20 minutes at 37° C. The optical density was measured at a wavelength of 490 nm. A calibration curve was generated from a series of serial dilutions of a known platelet concentration and used to determine the number of adhered platelets.

[7] = system: graft site; experiment: in vivo dosing studies, anti-coagulant effect at the graft site by imaging
Description: During the development of embodiments of the technology provided herein, experiments were conducted to study the in vivo binding and pharmacology response of the embodiments of heparin-CREKA. In particular, data were collected from three animal studies in which the dosing period was varied. Study 1—animals were scarified 24 hours after the initial surgery and 2 doses of heparin-CREKA or control heparin-CERAK were administrated by intravenous injection during the 24 hour period. The first dose was administered immediately after the surgery (e.g., after re-establishing blood flow at the graft area). The second dose was administered 6 hours prior to euthanizing the animal. Imaging data were collected and analyzed to evaluate the anti-coagulant effect of heparin-CREKA at the graft site. […] Study 2—animals were kept alive for 7 days after surgery and one dose of heparin-CREKA or control heparin-CERAK was administrated by intravenous injection immediately after the surgery (e.g., after re-establishing blood flow at the graft area). In contrast to Study 1, no additional dose was given after the first dose. Imaging data were collected and analyzed to evaluate the anti-coagulant effect of heparin-CREKA at the graft site. […] Study 3—animals were kept alive for 7 days after surgery and two doses of heparin-CREKA or control heparin-CERAK were administrated by intravenous injection during the 7 day period. The first dose was administered immediately after the surgery (e.g., after re-establishing blood flow at the graft area). The second dose was administered 6 hours before euthanizing the animal. Imaging data were collected and analyzed to evaluate the anti-coagulant effect of heparin-CREKA at the graft site.

Row | Substance | CREKA-fibrin binding [1] | binding to fibrinogen [2] | binding to albumin [3] | clotting in the grafts (histology) [4] | time for which the anti-coagulant effect was detected after contacting the blood [5] | amount of adhered platelets [6] | anti-coagulant effect at the graft site relative to heparin-CERAK ([7]; Study 1: 24 hours, 2 intravenous doses (after surgery and 6 hours prior to euthanizing)) | anti-coagulant effect at the graft site relative to heparin-CERAK ([7]; Study 2: 7 days, one intravenous dose immediately after surgery) | anti-coagulant effect at the graft site relative to heparin-CERAK ([7]; Study 3: 7 days, two intravenous doses (after surgery and 6 hours before euthanizing))
1 | Cys-Arg-Glu-Lys-Ala (CREKA; also: biotinylated, site not given here) [tested in biotinylated form] | highly specific | very weakly | very weakly | – | – | – | – | – | –
2 | heparin [reference compound] | – | – | – | major clotting | < 20 min | – | – | – | –
3 | heparin-CREKA: heparin covalently linked through a BMPH linker to the fibrin binding peptide Cys-Arg-Glu-Lys-Ala (CREKA) (also: heparin linked via BMPH linker, site not given here) | – | – | – | remained clean | up to 60 minutes | significantly reduced | significant improvement | only a very small difference | significant improvement
